Assay results taken from patent US10562909B2, “Fused quadracyclic compounds, compositions and uses thereof” (Tabomedex Biosciences, LLC, priority 2016, dated 2020).

Molecular target: MAPKAPK2 (Homo sapiens, UniProt P49137)
Test: MK2 Enzymatic Assay
Type: biochemical
Conditions: 0.5 nM MAPKAPK2, 3 μM ATP, 2 μM Ser/Thr4 peptide, 23° C., values given as concentration bins
Summary of the method: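 Percent phosphorylation was derived from coumarin and fluorescein emissions relative to 0% and 100% phospho-peptide controls, read after a 120 min development step. Reactions used 2× stocks of 1 nM kinase, 4 μM peptide and 6 μM ATP; enzyme and peptide sat 20 min before a 120 min ATP reaction.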

Sequence of MAPKAPK2 (P49137 whole entry, species assumed): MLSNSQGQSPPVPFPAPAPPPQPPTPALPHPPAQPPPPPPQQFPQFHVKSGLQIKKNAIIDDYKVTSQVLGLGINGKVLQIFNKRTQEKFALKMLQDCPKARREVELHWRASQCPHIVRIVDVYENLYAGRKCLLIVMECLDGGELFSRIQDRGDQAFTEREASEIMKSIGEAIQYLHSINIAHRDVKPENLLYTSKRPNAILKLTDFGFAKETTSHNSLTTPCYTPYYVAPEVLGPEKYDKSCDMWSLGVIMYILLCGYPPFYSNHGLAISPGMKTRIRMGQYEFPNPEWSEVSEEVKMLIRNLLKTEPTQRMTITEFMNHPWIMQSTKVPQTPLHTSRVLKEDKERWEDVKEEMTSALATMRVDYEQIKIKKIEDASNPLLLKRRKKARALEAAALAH

Compound | IC50 [µM]
OC1CCN(C[C@H]2CCN(c3ccc4c(c3)Cn3cc(-c5ccccc5)cc3-c3nncn3-4)C2)CC1 [Compound 459, (R)-1-((1-(12-phenyl-9H-benzo[e]pyrrolo[1,2-a][1,2,4]triazolo[3,4-c][1,4]diazepin-7-yl)pyrrolidin-3-yl)methyl)piperidin-4-ol] | 0.1 to 0.2
CN(C)C1CCN(c2cc3c(cn2)-n2cnnc2-c2cc(-c4ccc(C#N)cc4)cn2C3)CC1 [Compound 321, 4-(7-(4-(dimethylamino)piperidin-1-yl)-9H-pyrido[3,4-e]pyrrolo[1,2-a][1,2,4]triazolo[3,4-c][1,4]diazepin-12-yl)benzonitrile] | 0.1 to 0.2
N[C@@H]1CN(c2ccc3c(c2)Cn2cc(-c4ccc(F)cc4)cc2-c2ncnn2-3)C[C@H]1CO (relative stereo) [Compound 503, (Trans-4-amino-1-(12-(4-fluorophenyl)-9H-benzo[e]pyrrolo[1,2-a][1,2,4]triazolo[5,1-c][1,4]diazepin-7-yl)pyrrolidin-3-yl)methanol] | 0.1 to 0.2
N#Cc1ccc(-c2cc3n(c2)Cc2cc(N4CC5(CCNC5)C4)ccc2-n2ncnc2-3)cc1 [Compound 258, 4-(7-(2,6-diazaspiro[3.4]octan-2-yl)-9H-benzo[e]pyrrolo[1,2-a][1,2,4]triazolo[5,1-c][1,4]diazepin-12-yl)benzonitrile] | 0.05 to 0.1
N#Cc1ccc(-c2cc3n(c2)Cc2nc(N4CCC5(CNC5)C4)ccc2-n2ccnc2-3)cc1 [Compound 310, 4-(7-(2,6-diazaspiro[3.4]octan-6-yl)-9H-imidazo[2,1-c]pyrido[3,2-e]pyrrolo[1,2-a][1,4]diazepin-12-yl)benzonitrile] | < 0.05
CN(C)C[C@H]1CCN(c2ccc3c(c2)Cn2cc(-c4ccc(C#N)cc4)cc2-c2ncnn2-3)C1 [Compound 255, (R)-4-(7-(3-((dimethylamino)methyl)pyrrolidin-1-yl)-9H-benzo[e]pyrrolo[1,2-a][1,2,4]riazolo[5,1-c][1,4]diazepin-12-yl)benzonitrile] | < 0.05
OC1CCN(C[C@H]2CCN(c3ccc4c(c3)Cn3cc(-c5ccc(F)cc5)cc3-c3nccn3-4)C2)CC1 [Compound 362, (R)-1-((1-(12-(4-fluorophenyl)-9H-benzo[e]imidazo[2,1-c]pyrrolo[1,2-a][1,4]diazepin-7-yl)pyrrolidin-3-yl)methyl)piperidin-4-ol] | < 0.05
OC[C@@H]1CN(c2ccc3c(c2)Cn2cc(-c4ccc(F)cc4)cc2-c2nccn2-3)C[C@H]1O [Compound 485, (3S,4S)-1-(12-(4-fluorophenyl)-9H-benzo[e]imidazo[2,1-c]pyrrolo[1,2-a][1,4]diazepin-7-yl)-4-(hydroxymethyl)pyrrolidin-3-ol] | 0.1 to 0.2
CN(C)C[C@@H]1CCN(c2ccc3c(c2)Cn2c(cc(-c4ccc(C#N)cc4)c2Cl)-c2nncn2-3)C1 [Compound 170, (S)-4-(11-chloro-7-(3-((dimethylamino)methyl)pyrrolidin-1-yl)-9H-benzo[e]pyrrolo[1,2-a] [1,2,4]triazolo[3,4-c][1,4]diazepin-12-yl)benzonitrile] | 0.05 to 0.1
CNCC1CN(c2ccc3c(c2)Cn2cc(-c4ccc(C#N)cc4)cc2-c2ncnn2-3)C1 [Compound 250, 4-(7-(3-((methylamino)methyl)azetidin-1-yl)-9H-benzo[e]pyrrolo[1,2-a][1,2,4]triazolo[5,1-c] [1,4]diazepin-12-yl)benzonitrile] | 0.05 to 0.1
CN(C)[C@@H]1CN(c2ccc3c(c2)Cn2cc(-c4ccc(C#N)cc4)cc2-c2nncn2-3)C[C@@H]1O [Compound 83, 4-(7-((3R,4S)-3-(dimethylamino)-4-hydroxypyrrolidin-1-yl)-9H-benzo[e]pyrrolo[1,2-a] [1,2,4]triazolo[3,4-c][1,4]diazepin-12-yl)benzonitrile] | 0.05 to 0.1
CN(C)C[C@H]1CN(c2ccc3c(c2)Cn2cc(-c4ccc(C#N)cc4)cc2-c2nccn2-3)C[C@@H]1O [Compound 137, 4-(7-((3S,4R)-3-((dimethylamino)methyl)-4-hydroxypyrrolidin-1-yl)-9H-benzo[e]imidazo[2,1-c]pyrrolo[1,2-a][1,4]diazepin-12-yl)benzonitrile] | < 0.05
CN(C)C[C@@H]1CCN(c2cc3c(cn2)-n2cnnc2-c2cc(-c4ccc(F)cc4)cn2C3)C1 [Compound 443, (S)-1-(1-(12-(4-fluorophenyl)-9H-pyrido[3,4-e]pyrrolo[1,2-a][1,2,4]triazolo[3,4-c][1,4]diazepin-7-yl)pyrrolidin-3-yl)-N,N-dimethylmethanamine] | 0.1 to 0.2
CNCC1CN(c2cc3c(cn2)-n2cnnc2-c2cc(-c4ccc(F)cc4)cn2C3)C1 [Compound 330, 1-(1-(12-(4-fluorophenyl)-9H-benzo[e]pyrrolo[1,2-a][1,2,4]triazolo[3,4-c][1,4]diazepin-7-yl)azetidin-3-yl)-N-methylmethanamine] | 0.05 to 0.1

Next, values leading:

IC50 [µM] | Compound
< 0.05 | CNCc1cnc2n1-c1ccc(N3CC[C@@H](N(C)C)C3)cc1Cn1cc(-c3ccc(C#N)cc3)cc1-2 [Compound 276, 4-(7-((R)-3-(dimethylamino)pyrrolidin-1-yl)-3-((methylamino)methyl)-9H-benzo[e]imidazo[2,1-c]pyrrolo[1,2-a][1,4]diazepin-12-yl)benzonitrile]
< 0.05 | CN(C)[C@@H]1CN(c2ccc3c(c2)Cn2cc(-c4ccc(F)cc4)cc2-c2nccn2-3)C[C@@H]1O [Compound 353, (3S,4R)-4-(dimethylamino)-1-(12-(4-fluorophenyl)-9H-benzo[e]imidazo[2,1-c]pyrrolo[1,2-a] [1,4]diazepin-7-yl)pyrrolidin-3-ol]
< 0.05 | C[C@H](CO)NC[C@H]1CCN(c2ccc3c(n2)Cn2cc(-c4ccc(F)cc4)cc2-c2nccn2-3)C1 [Compound 434, (R)-2-((((R)-1-(12-(4-fluorophenyl)-9H-imidazo[2,1-c]pyrido[3,2-e]pyrrolo[1,2-a][1,4]diazepin-7-yl)pyrrolidin-3-yl)methyl)amino)propan-1-ol]
< 0.05 | CNC[C@H]1CCN(c2ccc3c(c2)Cn2cc(-c4ccc(F)cc4)cc2-c2nccn2-3)C1 [Compound 348, (R)-1-(1-(12-(4-fluorophenyl)-9H-benzo[e]imidazo[2,1-c]pyrrolo[1,2-a][1,4]diazepin-7-yl)pyrrolidin-3-yl)-N-methylmethanamine]
< 0.05 | CN(C)[C@@H]1CN(c2ccc3c(c2)Cn2cc(-c4ccc(C#N)cc4)cc2-c2nccn2-3)C[C@@H]1O [Compound 134, 4-(7-((3R,4S)-3-(dimethylamino)-4-hydroxypyrrolidin-1-yl)-9H-benzo[e]imidazo[2,1-c]pyrrolo[1,2-a][1,4]diazepin-12-yl)benzonitrile]
< 0.05 | Fc1ccc(-c2cc3n(c2)Cc2nc(N4CCC5(CNC5)C4)ccc2-n2ccnc2-3)cc1 [Compound 440, 12-(4-fluorophenyl)-7-(2,6-diazaspiro[3.4]octan-6-yl)-9H-imidazo[2,1-c]pyrido[3,2-e] pyrrolo[1,2-a][1,4]diazepine]
< 0.05 | CN(C)C[C@@H]1CN(c2ccc3c(n2)Cn2cc(-c4ccc(F)cc4)cc2-c2nccn2-3)C[C@@H]1O [Compound 430, (3R,4R)-4-((dimethylamino)methyl)-1-(12-(4-fluorophenyl)-9H-imidazo[2,1-c]pyrido[3,2-e]pyrrolo[1,2-a][1,4]diazepin-7-yl)pyrrolidin-3-ol]
< 0.05 | CNCC1CN(c2ccc3c(c2)Cn2cc(-c4ccc(F)cc4)cc2-c2nnnn2-3)C1 [Compound 386, 1-(1-(12-(4-fluorophenyl)-9H-benzo[e]pyrrolo[1,2-a]tetrazolo[5,1-c][1,4]diazepin-7-yl)azetidin-3-yl)-N-methylmethanamine]
< 0.05 | CN(C)C[C@@H]1CN(c2ccc3c(c2)Cn2cc(-c4ccc(C#N)cc4)cc2-c2nccn2-3)C[C@@H]1O [Compound 129, 4-(7-((3R,4R)-3-((dimethylamino)methyl)-4-hydroxypyrrolidin-1-yl)-9H-benzo[e]imidazo[2,1-c]pyrrolo[1,2-a][1,4]diazepin-12-yl)benzonitrile]
< 0.05 | CN(C)C[C@H]1CN(c2ccc3c(c2)Cn2cc(-c4ccc(C#N)cc4)cc2-c2nncn2-3)C[C@H]1O (relative stereo) [Compound 75, 4-(7-(Cis-3-((dimethylamino)methyl)-4-hydroxypyrrolidin-1-yl)-9H-benzo[e]pyrrolo[1,2-a] [1,2,4]triazolo[3,4-c][1,4]diazepin-12-yl)benzonitrile]
< 0.05 | CN(C)C[C@H]1CN(c2ccc3c(n2)Cn2cc(-c4ccc(F)cc4)cc2-c2ncnn2-3)C[C@H]1O [Compound 429, (3S,4S)-4-((dimethylamino)methyl)-1-(12-(4-fluorophenyl)-9H-imidazo[2,1-c]pyrido[3,2-e]pyrrolo[1,2-a][1,4]diazepin-7-yl)pyrrolidin-3-ol]
< 0.05 | CNC[C@@H]1CN(c2ccc3c(c2)Cn2cc(-c4ccc(F)cc4)cc2-c2ncnn2-3)C[C@@H]1F [Compound 499, 1-((3R,4R)-4-fluoro-1-(12-(4-fluorophenyl)-9H-benzo[e]pyrrolo[1,2-a][1,2,4]triazolo[5,1-c] [1,4]diazepin-7-yl)pyrrolidin-3-yl)-N-methylmethanamine]
< 0.05 | CNCC1CCN(c2ccc3c(c2)Cn2cc(-c4ccc(C#N)cc4)cc2-c2nnnn2-3)C1 (centres unmarked) [Compound 239, 4-(7-(3-((methylamino)methyl)pyrrolidin-1-yl)-9H-benzo[e]pyrrolo[1,2-a]tetrazolo[5,1-c] [1,4]diazepin-12-yl)benzonitrile]
< 0.05 | CN(C)C[C@@H]1CN(c2ccc3c(c2)Cn2cc(-c4ccc(F)cc4)cc2-c2nccn2-3)C[C@@H]1O [Compound 350, (3R,4R)-4-((dimethylamino)methyl)-1-(12-(4-fluorophenyl)-9H-benzo[e]imidazo[2,1-c]pyrrolo[1,2-a][1,4]diazepin-7-yl)pyrrolidin-3-ol]
< 0.05 | O[C@H]1CN(c2ccc3c(c2)Cn2cc(-c4ccc(F)cc4)cc2-c2nccn2-3)C[C@@H]1CNC1CC1 [Compound 473, (3R,4S)-4-((cyclopropylamino)methyl)-1-(12-(4-fluorophenyl)-9H-benzo[e]imidazo[2,1-c]pyrrolo[1,2-a][1,4]diazepin-7-yl)pyrrolidin-3-ol]
